Holding throughout (format): in vivo
For assay [1], the system named is Alternaria solani. Kind of assay: Test B: preventive spray on tomato seedlings, tomato early blight, visual disease rating. How it is done: General protocol for preparing test suspensions for Tests A-G: the test compounds were first dissolved in acetone in an amount equal to 3% of the final volume and then suspended at the desired concentration (in ppm) in acetone and purified water (50/50 mix by volume) containing 250 ppm of the surfactant Trem® 014 (polyhydric alcohol esters). The resulting test suspensions were then used in Tests A-G. Each test was conducted in triplicate, and the results were averaged. Spraying a 200 ppm test suspension to the point of run-off on the test plants was the equivalent of a rate of 800 g/ha. Unless otherwise indicated, the rating values indicate a 200 ppm test suspension was used. (An asterisk “*” next to the rating value indicates a 40 ppm test suspension was used.) The test suspension was sprayed to the point of run-off on tomato seedlings. The following day the seedlings were inoculated with a spore suspension of Alternaria solani (the causal agent of tomato early blight) and incubated in a saturated atmosphere at 27° C. for 48 h, and then moved to a growth chamber at 20° C. for 5 days, after which time visual disease ratings were made. Results for Tests A-G are given in Table A. In the Table, a rating of 100 indicates 100% disease control and a rating of 0 indicates no disease control (relative to the controls). A hyphen (-) indicates no test results.

Assay [2] deals with Puccinia recondita f. sp. tritici. Description: Test F: preventive spray on wheat seedlings, wheat leaf rust, visual disease rating. The following applies: for pest or weed control at 200 ppm / Test F rating (disease control): 200 ppm test suspension, Puccinia recondita f. sp. tritici inoculated the day after spraying. The gist of the method: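 Compounds in acetone/water (50/50) with 250 ppm Trem 014, sprayed to run-off on seedlings at 200 ppm (800 g/ha) or 40 ppm where marked. Inoculated next day, 24 h saturated atmosphere at 20° C then 6 days at 20° C; visual rating, 100 = full control vs controls, triplicate averaged.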

The test system is the same in assay [3]. Description: Test E: spray after inoculation of wheat seedlings, wheat leaf rust, visual disease rating. The following applies: sprayed after inoculation with Puccinia recondita f. sp. tritici. As to the method: General protocol for preparing test suspensions for Tests A-G: the test compounds were first dissolved in acetone in an amount equal to 3% of the final volume and then suspended at the desired concentration (in ppm) in acetone and purified water (50/50 mix by volume) containing 250 ppm of the surfactant Trem® 014 (polyhydric alcohol esters). The resulting test suspensions were then used in Tests A-G. Each test was conducted in triplicate, and the results were averaged. Spraying a 200 ppm test suspension to the point of run-off on the test plants was the equivalent of a rate of 800 g/ha. Unless otherwise indicated, the rating values indicate a 200 ppm test suspension was used. (An asterisk “*” next to the rating value indicates a 40 ppm test suspension was used.) Wheat seedlings were inoculated with a spore suspension of Puccinia recondita f. sp. tritici (the causal agent of wheat leaf rust) and incubated in a saturated atmosphere at 20° C. for 24 h, and then moved to a growth chamber at 20° C. for 2 days. At the end of this time the, the test suspension was sprayed to the point of run-off on the wheat seedlings, and then the seedlings were moved back to the growth chamber at 20° C. for 4 days. Upon removal, visual disease ratings were made. Results for Tests A-G are given in Table A. In the Table, a rating of 100 indicates 100% disease control and a rating of 0 indicates no disease control (relative to the controls). A hyphen (-) indicates no test results.

For assay [4], the system named is Septoria nodorum. Kind of assay: Test C: preventive spray on wheat seedlings, Septoria glume blotch, visual disease rating. The following applies: for pest or weed control at 200 ppm / Test C rating (disease control): 200 ppm test suspension, Septoria nodorum inoculated the day after spraying. The gist of the method:
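Compounds suspended in acetone/water (50/50) with 250 ppm surfactant, sprayed to run-off at 200 ppm (40 ppm where marked); seedlings inoculated next day, held 48 h saturated at 24 °C, then 9 days at 20 °C. Visual rating 0–100% disease control versus controls, triplicate averaged.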

Assay [5] deals with Botrytis cinerea. Description: Test A: preventive spray on tomato seedlings, tomato Botrytis, visual disease rating. The following applies: for pest or weed control at 200 ppm / Test A rating (disease control): 200 ppm test suspension, Botrytis cinerea inoculated the day after spraying. Put shortly:
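Tomato seedlings were sprayed to run-off with test suspension, 200 ppm (≈800 g/ha) unless marked 40 ppm, in acetone/water with surfactant. They were inoculated with Botrytis cinerea spores next day, held 48 h saturated at 20 °C, then 3 days at 24 °C. Disease control was rated visually, 0–100 relative to controls, in triplicate.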

Where [6] appears, read: 200 ppm test suspension, Alternaria solani inoculated the day after spraying.
The mark [7] stands for this setting: Parastagonospora nodorum, 264 h.

Marks after values point to notes of the source that are not given here.

Results on 16 molecules are retold here after patent US20140288074A1, “FUNGICIDAL PYRAZOLES” (E I DU PONT DE NEMOURS AND COMPANY, priority 2013, published 2014).

Regarding `Cc1nn(C)c(C(O)C(C)C)c1-c1ccc(F)cc1Cl` (stereo not drawn) [Compound 2, 4-(2-chloro-4-fluorophenyl)-1,3-dimethyl-α-(1-methylethyl)-1H-pyrazole-5-methanol], the “Test B rating (disease control)” value in assay [1] (setting [6]) was 0%. Besides, the pest or weed control at 200 ppm was determined as 99% in assay [2] (168 h), 0% in assay [4] (setting [7]) and 100% in assay [5] (120 h). For the same molecule, the “Test E rating (disease control)” value in assay [3] (200 ppm test suspension) is given as 26%.

As for `CCCNc1c(-c2ccc(Cl)cc2Cl)c(C)nn1C` [Compound 3], the “Test B rating (disease control)” value in assay [1] (setting [6]) came out at 21%. Further, in assay [2], the “Test F rating (disease control)” value worked out at 0%. Besides, the “Test E rating (disease control)” value in assay [3] (200 ppm test suspension) stood at 0%. In addition, the “Test C rating (disease control)” value in assay [4] is given as 0%. Moreover, the “Test A rating (disease control)” value in assay [5] came to 65%.

Turning to `Cc1nn(C)c(NCC(C)C)c1-c1ccc(Cl)cc1Cl` [Compound 4, 4-(2,4-dichlorophenyl)-1,3-dimethyl-N-(2-methylpropyl)-1H-pyrazol-5-amine], the “Test B rating (disease control)” value in assay [1] (setting [6]) was 94%. For the same molecule, the values for the pest or weed control at 200 ppm in assay [2] (168 h), in assay [4] (setting [7]) and in assay [5] (120 h) were 0%, 0% and 99%, respectively. Moreover, the “Test E rating (disease control)” value in assay [3] (200 ppm test suspension) was found to be 26%.

Turning to `CCCCNc1c(-c2ccc(Cl)cc2Cl)c(C)nn1C` [Compound 5, N-butyl-4-(2,4-dichlorophenyl)-1,3-dimethyl-1H-pyrazol-5-amine], the “Test B rating (disease control)” value in assay [1] (setting [6]) was found to be 0%. Also, the values for the pest or weed control at 200 ppm in assay [2] (168 h), in assay [4] (setting [7]) and in assay [5] (120 h) were 27%, 0% and 98%, respectively. Besides, in assay [3] (200 ppm test suspension), the “Test E rating (disease control)” value came to 79%.

On to `Cc1nn(C)c(NC2CCCCC2)c1-c1ccc(F)cc1F` [Compound 6, N-cyclohexyl-4-(2,4-difluorophenyl)-1,3-dimethyl-1H-pyrazol-5-amine], for which the “Test B rating (disease control)” value in assay [1] (setting [6]) was found to be 99%. For the same molecule, the figures for the pest or weed control at 200 ppm in assay [2] (168 h), in assay [4] (setting [7]) and in assay [5] (120 h) were 17%, 0% and 99%, respectively. For the same molecule, the “Test E rating (disease control)” value in assay [3] (200 ppm test suspension) was 68%.

Turning to `CCC(C)C(O)c1c(-c2ccc(F)cc2Cl)c(C)nn1C` (stereo not drawn) [Compound 8, 4-(2-chloro-4-fluorophenyl)-1,3-dimethyl-α-(1-methylpropyl)-1H-pyrazole-5-methanol], the “Test B rating (disease control)” value in assay [1] (setting [6]) is on record as 99%. In addition, the pest or weed control at 200 ppm in assay [2] (168 h) stood at 100%; in assay [4] (setting [7]) it was 0%; in assay [5] (120 h), 95%. Further, the “Test E rating (disease control)” value in assay [3] (200 ppm test suspension) turned out to be 0%.

In the case of `Cc1nn(C)c(C(O)C(C)(C)CCC#N)c1-c1c(F)cccc1F` (centres unmarked) [Compound 9], the “Test B rating (disease control)” value in assay [1] (setting [6]) was 0%. Also, the “Test F rating (disease control)” value in assay [2] amounted to 9%. For the same molecule, the “Test E rating (disease control)” value in assay [3] (200 ppm test suspension) was found to be 0%. Also, in assay [4], the “Test C rating (disease control)” value was determined as 0%. The “Test A rating (disease control)” value in assay [5] is listed as 26%.

On to `Cc1nn(C)c(C(O)C2=CCCCC2)c1-c1c(F)cccc1F` (centres unmarked) [Compound 10], for which the “Test B rating (disease control)” value in assay [1] (setting [6]) came to 99%. Further, the “Test F rating (disease control)” value in assay [2] was found to be 86%. Besides, the “Test E rating (disease control)” value in assay [3] (200 ppm test suspension) was found to be 0%. In addition, the “Test C rating (disease control)” value in assay [4] is 0%. In assay [5], the “Test A rating (disease control)” value amounted to 99%.

Turning to `Cc1nn(C)c(C(O)CC(C)C)c1-c1c(F)cccc1F` (centres unmarked) [Compound 11], the “Test B rating (disease control)” value in assay [1] (setting [6]) was found to be 81%. Besides, the “Test F rating (disease control)” value in assay [2] stood at 89%. Besides, the “Test E rating (disease control)” value in assay [3] (200 ppm test suspension) was found to be 0%. Moreover, in assay [4], the “Test C rating (disease control)” value is listed as 0%. In assay [5], the “Test A rating (disease control)” value was found to be 67%.

In the case of `C=CCC(C)(C)C(O)c1c(-c2c(F)cccc2F)c(C)nn1C` (centres unmarked) [Compound 12], in assay [1] (setting [6]), the “Test B rating (disease control)” value is given as 32%. Moreover, the “Test F rating (disease control)” value in assay [2] was 41%. In assay [3] (200 ppm test suspension), the “Test E rating (disease control)” value turned out to be 0%. Further, the “Test C rating (disease control)” value in assay [4] is reported as 0%. Besides, in assay [5], the “Test A rating (disease control)” value is given as 0%.

For the molecule `CCCCC(CC)C(O)c1c(-c2c(F)cccc2F)c(C)nn1C` (centres unmarked) [Compound 13], the “Test B rating (disease control)” value in assay [1] (setting [6]) stood at 0%. Further, in assay [2], the “Test F rating (disease control)” value came to 28%. In assay [3] (200 ppm test suspension), the “Test E rating (disease control)” value was determined as 0%. In addition, in assay [4], the “Test C rating (disease control)” value is 0%. Further, the “Test A rating (disease control)” value in assay [5] worked out at 0%.

`CCCC(O)c1c(-c2c(F)cccc2F)c(C)nn1C` (centres unmarked) [Compound 14]: the “Test B rating (disease control)” value in assay [1] (setting [6]) was found to be 0%. The “Test F rating (disease control)” value in assay [2] was found to be 74%. The “Test E rating (disease control)” value in assay [3] (200 ppm test suspension) came to 0%. Also, the “Test C rating (disease control)” value in assay [4] was 0%. In addition, the “Test A rating (disease control)” value in assay [5] is 33%.

As for `CCC(C)C(O)c1c(-c2c(F)cccc2F)c(C)nn1C` (centres unmarked) [Compound 15], the “Test B rating (disease control)” value in assay [1] (setting [6]) is recorded as 99%. In assay [2], the “Test F rating (disease control)” value is on record as 74%. In assay [3] (200 ppm test suspension), the “Test E rating (disease control)” value was found to be 9%. Also, the “Test C rating (disease control)” value in assay [4] was 0%. The “Test A rating (disease control)” value in assay [5] is recorded as 67%.

As to `CCC(C)C(O)c1c(-c2c(F)cccc2Cl)c(C)nn1C` (stereo not drawn) [Compound 19, 4-(2-chloro-6-fluorophenyl)-1,3-dimethyl-α-(1-methylpropyl)-1H-pyrazole-5-methanol], the “Test B rating (disease control)” value in assay [1] (40 ppm test suspension (asterisk), Alternaria solani) is 0* %. Also, the pest or weed control at 40 ppm in assay [2] (168 h, 40 ppm test suspension (asterisk), Puccinia recondita f. sp. tritici, preventive) turned out to be 19%; in assay [4] (Parastagonospora nodorum, 264 h, 40 ppm test suspension (asterisk), Septoria nodorum), 0%; in assay [5] (120 h, 40 ppm test suspension (asterisk), Botrytis cinerea), 77%. In assay [3] (40 ppm test suspension (asterisk)), the “Test E rating (disease control)” value is recorded as 0* %.

For `Cc1nn(C)c(C(O)CC(C)C)c1-c1c(F)cccc1Cl` (centres unmarked) [Compound 20], in assay [1] (setting [6]), the “Test B rating (disease control)” value amounted to 93%. Also, in assay [2], the “Test F rating (disease control)” value is 86%. Also, the “Test E rating (disease control)” value in assay [3] (200 ppm test suspension) was 0%. For the same molecule, the “Test C rating (disease control)” value in assay [4] is listed as 0%. Further, the “Test A rating (disease control)” value in assay [5] is 92%.

For `CCCC(O)c1c(-c2c(F)cccc2Cl)c(C)nn1C` (centres unmarked) [Compound 21], in assay [1] (setting [6]), the “Test B rating (disease control)” value is on record as 56%. In addition, the “Test F rating (disease control)” value in assay [2] is listed as 74%. In addition, the “Test E rating (disease control)” value in assay [3] (200 ppm test suspension) is 0%. Moreover, the “Test C rating (disease control)” value in assay [4] turned out to be 0%. Moreover, the “Test A rating (disease control)” value in assay [5] is on record as 75%.
